Reference: US20240425464A1, “Substituted Monohydrazides as Potent Antifungal Agents” (University of Kentucky Research Foundation, priority 2023, published 2024)
≈ marks a conversion by molar mass, not a printed value. Read-outs that look alike come from different tables or passages of the source.

Assays:
[1] = tested on: C. albicans ATCC 10231 (strain A); assay: Time-kill assay; format: cell-based, Candida albicans; details: at 4×MIC; CFU at 0-24 h
Description: Compounds were then added to the fungal cells. […] Experiments were performed in duplicate.

HepG2 cells = assay: In vitro cytotoxicity assay (resazurin); format: cell-based; details: for toxicity: up to 31.3 j·tg mL^−1, 24 h; for cell survival: at 31.3 j·tg mL^−1
Description: The antifungal agent amphotericin B (AmB) was purchased from VWR (Radnor PA, USA). AmB was dissolved in DMSO at a final concentration of 5 mg/mL and was stored at −20° C., protected from light. […] For cytotoxicity assays, HepG2 and the mouse macrophage cell line J774A.1 were obtained from University of Kentucky. […] Mammalian cells were grown in Dulbecco's Modified Eagle's Medium (DMEM) (from VWR) with 10% fetal bovine serum (FBS) (from VWR) and 1% Pen/Strep (from ATCC). Cell lines were cultured at 37° C. with 5% CO2 and passaged by trypsinization with 0.05% trypsin: 0.53 mM EDTA (from Sigma-Aldrich).
Cytotoxicity assays were performed as previously described with slight modifications.^3 HepG2, J774A.1, and HEK-293 cells were first thawed from frozen stocks kept in liquid N2 and grown in Dulbecco's modified Eagles's medium (DMEM) containing 10% fetal bovine serum (FBS) and 1% Pen/Strep. […] The 96-well plates were incubated 37° C. with 5% CO2 overnight. […] The medium in the 96-well plates containing the cells was aspirated and replaced by fresh DMEM (100 μL). […] The 96-well plates were further incubated for 24 h at 37° C. with 5% CO2 overnight. To evaluate cell survival, each well was treated with 10 μL (2 mM) of resazurin sodium salt (Sigma-Aldrich, St. Louis, MO, USA) and was incubated for another 6 h. Metabolically active cells can convert resazurin to the highly fluorescent dye, resorufin, and be detected at ?560 excitation and λ590 emission using a SpectraMax M5 plate reader (Molecular Devices, San Jose, CA, USA). Triton X-100® (1%, v/v) was used as positive control; the negative control consisted of cells treated with the delivery vehicle (0.05% DMSO), and the blank control was only the culture medium with 0.05% DMSO without cells. The experiments were performed in quadruplicate.

[2] = tested on: Saccharomyces cerevisiae AR Bank #400; assay: MIC determination by in vitro antifungal assay; format: cell-based
Description: (§1) The antifungal agent amphotericin B (AmB) was purchased from VWR (Radnor PA, USA). AmB was dissolved in DMSO at a final concentration of 5 mg/mL and was stored at −20° C., protected from light. Candida albicans American Type Culture Collection (ATCC) 10231 (strain A), C. albicans ATCC 64124 (B), and C. albicans ATCC MYA-2876 (C) were obtained from Utah State University. C. albicans ATCC 90819 (D), C. albicans ATCC MYA-2310 (E), C. albicans ATCC MYA-1237 (F), C. albicans ATCC MYA-1003 (G), Candida glabrata ATCC 2001 (H), Candida krusei ATCC 6258 (I), Candida parapsilosis ATCC 22019 (J), Cryptococcus neoformans ATCC MYA-895 (M), Aspergillus terreus ATCC MYA-3633 (N), and Aspergillus flavus ATCC MYA-3631 (0) were obtained from the American Type Culture Collection (ATCC; Manassas, VA, USA). Aspergillus nidulans ATCC 38163 (P) was obtained from University of Kentucky. Clinically derived Aspergillus fumigatus NRRL 163 (Q), A. fumigatus NRRL 5109 (R), and A. fumigatus NRRL 6113 (S) were obtained from Northern Regional Research Laboratory (NRRL). Candida auris 384 (K), C. auris 390 (L), and fungal strains 381-400 (including 10 C. auris (AR Bank #381-390), 3 Candida duobushaemulonii (AR Bank #391, AR Bank #392, and AR Bank #394), 2 Candida haemulonii (AR Bank #393 and AR Bank #395), 1 Kodameae ohmeri (AR Bank #396), 1 C. krusei (AR Bank #397), 1 Candida lusitaniae (AR Bank #398), and 2 Saccharomyces cerevisiae strains (AR Bank #399 and AR Bank #400)) were part of a larger fungal library from the AR Bank maintained by the Centers for Disease Control and Prevention (CDC; Atlanta, GA, USA). Filamentous fungi and yeasts were cultivated at 35° C. in RPMI 1640 medium (with L-glutamine, without sodium bicarbonate, Sigma-Aldrich, St. Louis, MO) buffered to a pH of 7.0 with 0.165 M morpholinepropanesulfonic acid (MOPS) buffer (Sigma-Aldrich). For cytotoxicity assays, HepG2 and the mouse macrophage cell line J774A.1 were obtained from University of Kentucky. The human embryonic kidney cell line, HEK-293, was bought from the ATCC. Mammalian cells were grown in Dulbecco's Modified Eagle's Medium (DMEM) (from VWR) with 10% fetal bovine serum (FBS) (from VWR) and 1% Pen/Strep (from ATCC). Cell lines were cultured at 37° C. with 5% CO2 and passaged by trypsinization with 0.05% trypsin: 0.53 mM EDTA (from Sigma-Aldrich).
(§2) From the actively growing yeast culture, 100 µL were then transferred to 900 μL of RPMI 1640 medium and re-adjusted to achieve OD600 of 0.12 (˜1×10^6 CFU/mL). The cell suspension was further diluted to achieve 1:100 in RPMI 1640 medium.

[3] = tested on: ten other fungal strains (AR Bank #391-400); assay: MIC determination, summary over ten additional fungal strains; format: cell-based; details: read-out: MIC range
Description: as §1, §2

[4] = tested on: C. albicans ATCC 10231 (strain A) biofilm formation; assay: Prevention of biofilm formation assay; format: cell-based, Candida albicans
Description: Biofilm prevention assays were set up identically to the ordinary MIC experiment, where compounds were diluted, and the fungi added. After overnight growth, the plates were washed as in the biofilm disruption assay and stained and measured in the same fashion.
A large amount of fungal cells were exposed to the monohydrazides at time 0 h to evaluate the effect of these compounds in the prevention of Candida biofilm formation (FIG. 5B). […] Although some of these monohydrazides were able to prevent biofilm formation, none of these compounds had any effect in terms of the disruption of already pre-formed biofilms (FIG. 5A).

SMILES: O=C(NNc1cccc(Cl)c1)c1ccccn1 [Compound 2b]
- fungistatic or fungicidal behavior in time-kill assay [1]: fungistatic
- toxicity (HepG2 cells): no toxicity

SMILES: O=C(NNc1ccc(Cl)cc1)c1cnccn1 [Compound 9e]
- MIC [2]: 3.9 μg/mL^−1

SMILES: O=C(NNc1cc(F)ccc1F)c1ccccn1 [Compound 2h]
- MIC [3]: 0.06 to 1.95 µg/mL (≈ 0.241 to 7.82 µM)
- prevention of biofilm formation [4]: not capable of preventing

SMILES: O=C(NNc1cccc(Cl)c1)c1cnccn1 [Compound 9b]
- MIC [3]: 0.06 to 1.95 µg/mL (≈ 0.241 to 7.84 µM)
- toxicity (HepG2 cells): no toxicity

SMILES: O=C(NNc1ccc(F)cc1F)c1ccccn1 [Compound 2g]
- MIC [3]: 0.06 to 7.8 µg/mL (≈ 0.241 to 31.3 µM)
- prevention of biofilm formation [4]: not capable of preventing
- toxicity (HepG2 cells): no toxicity

SMILES: O=C(NNc1ccc(F)cc1)c1ccccn1 [Compound 2d]
- MIC [3]: 0.06 to 7.8 µg/mL (≈ 0.259 to 33.7 µM)
- concentration active in prevention of biofilm formation [4]: 1.96 j·tg mL^−1
- toxicity (HepG2 cells): no toxicity

SMILES: COc1ccc(NNC(=O)c2cnccn2)cc1 [Compound 9f]
- MIC [3]: 0.06 to 1.95 µg/mL (≈ 0.246 to 7.98 µM)
- toxicity (HepG2 cells): no toxicity

SMILES: O=C(NNc1ccc(F)cc1F)c1cnccn1 [Compound 9g]
- MIC [3]: 0.06 to 7.8 µg/mL (≈ 0.24 to 31.2 µM)
- toxicity (HepG2 cells): no toxicity

SMILES: O=C(NNc1cccc(F)c1)c1cnccn1 [Compound 9a]
- cell survival (HepG2 cells): 94%

SMILES: O=C(NNc1cc(Cl)cc(Cl)c1)c1ccccn1 [Compound 2j]
- MIC ([2]; read-out: MIC): 3.9 µg/mL (≈ 13.8 µM)
- MIC [3]: 0.06 to 7.8 µg/mL (≈ 0.213 to 27.6 µM)
- prevention of biofilm formation [4]: not capable of preventing

SMILES: O=C(NNc1cccc(F)c1)c1ccccn1 [Compound 2a]
- concentration active in prevention of biofilm formation [4]: 7.8 j·tg mL^−1
- toxicity (HepG2 cells): no toxicity

SMILES: COc1cccc(NNC(=O)c2ccccn2)c1 [Compound 2c]
- MIC [2]: 7.8 μg/mL^−1
- concentration active in prevention of biofilm formation [4]: 1.96 j·tg mL^−1

SMILES: O=C(NNc1cc(F)cc(F)c1)c1ccccn1 [Compound 2i]
- MIC [3]: 0.06 to 1.95 µg/mL (≈ 0.241 to 7.82 µM)
- prevention of biofilm formation [4]: not capable of preventing
- cell survival (HepG2 cells): 89%

SMILES: COc1cccc(NNC(=O)c2cnccn2)c1 [Compound 9c]
- MIC ([2]; read-out: MIC): 3.9 µg/mL (≈ 16 µM)
- MIC [3]: 0.06 to 7.8 µg/mL (≈ 0.246 to 31.9 µM)
- toxicity (HepG2 cells): no toxicity

SMILES: COc1ccc(NNC(=O)c2ccccn2)cc1 [Compound 2f]
- MIC [3]: 0.06 to 1.95 µg/mL (≈ 0.247 to 8.02 µM)
- concentration active in prevention of biofilm formation [4]: 7.8 j·tg mL^−1
